Laboratory results from patent EP0350260A2, “New oxamic acid compounds and pharmaceutical composition for use in improvement of damaged cerebral functions of brain” (MEIJI SEIKA KAISHA LTD., priority 1988, dated 1990).

Columns and labels:
[1] = system: mice having cerebral anoxia experimentally induced under the load of hypobaric hypoxia; assay: Survival time of mice with cerebral anoxia induced under hypobaric hypoxia (Test 1); format: in vivo; settings: 100 mg/kg intraperitoneally, 30 minutes before evacuation to 190 mmHg; 6 ddy mice per group; untreated control group = 100
Protocol: ddy Mice (6 weeks old, body weight: 25-30 g, each group comprising 6 ddy mice) were administered intraperitoneally with the compounds of the present invention, respectively. Each of the tested compounds of this invention had been beforehand dissolved in redistilled water and the aqueous solution was administered in an amount of 0.1 ml per 10 g body weight. Thirty minutes after the administration, the mice were individually placed in hermetic transparent containers. The containers were rapidly evacuated to 190 mmHg by means of a vacuum pump. Time was measured from the initiation of the evacuation to the death of each mouse due to respiratory failure. That time was recorded as the survival time (seconds) of mice.
The ratios of the survival time of the groups of the treated mice which received the administration of the tested compounds of this invention divided by the survival time of a control group (untreated) which received no administration of the drug were calculated.

ddy mice = settings: mouse, in vivo
Protocol: The toxicity of the compounds of the general formula (I) usable in this invention was evaluated by using N,N-di-isopropyloxamic acid as one example.

C=CCN(CC=C)C(=O)C(=O)O [N,N-di-allyloxamic acid]
Survival time ratio (control group: 100) [1]: 187

CCCN(CCC)C(=O)C(=O)O [N,N-di-n-propyl-oxamic acid, N,N-di-n-propyloxamic acid]
Survival time ratio (control group: 100) [1]: 181

CC(C)N(C(=O)C(=O)O)C(C)C [N,N-di-isopropyl-oxamic acid, N,N-di-isopropyloxamic acid]
Survival time ratio (control group: 100) [1]: 155 | toxicity (survival of mice) (ddy mice): all the mice tolerated it and remained alive

CCCN(CC)C(=O)C(=O)O [N-ethyl-N-n-propyl-oxamic acid, N-ethyl-N-n-propyloxamic acid]
Survival time ratio (control group: 100) [1]: 166

CCCCN(CC)C(=O)C(=O)O [N-ethyl-N-butyl-oxamic acid, N-ethyl-N-n-butyloxamic acid]
Survival time ratio (control group: 100) [1]: 116
